{"source": "patent US12404318B2", "about": "“Combination HBV therapy” (priority 2018, dated 2025)", "system": "HBV (rAAV8-1.3HBV strain ayw, D type)", "assay": "Combination therapy study in AAV-HBV mice (Example 1): serum HBsAg and HBV DNA", "format": "in vivo, C57BL/6 mice", "description": "The mice (C57BL/6 strain) were inoculated with the following amount of rAAV8-1.3HBV strain ayw, D type: 1.0×10^11 viral genomes per mouse in 200 μl volume via tail veins injection. Four weeks after viral inoculation, treatment with test compounds was initiated.\nEntecavir was administered orally once per day.", "data": [{"compound": "HBV02: chemically synthesized double-stranded oligonucleotide (siRNA) linked to a ligand with three GalNAc residues; sense SEQ ID NO:7, antisense SEQ ID NO:8 (sense GUGUGCACUUCGCUUCACA; antisense UGUGAAGCGAAGUGCACACUU; triantennary GalNAc ligand attached, chemically modified, pattern not given here)", "values": [{"measurement": "Reduction of serum HBV DNA (viral load) relative to the saline control", "setting": "AAV/HBV-infected C57BL/6 mice, HBV02 3 mg/kg, HBC34 antibody (HBC34-v7-mu-IgG2a) 15 mg/kg, alone or combined, FIGS. 2A, 2B", "result": "~0.5", "unit": "log10"}, {"measurement": "Reduction of serum HBsAg relative to the saline control", "setting": "AAV/HBV-infected C57BL/6 mice, HBV02 3 mg/kg, HBC34 antibody (HBC34-v7-mu-IgG2a) 15 mg/kg, alone or combined, FIGS. 3A, 3B", "result": 1, "unit": "log10"}, {"measurement": "HBsAg levels from mouse serum (average log HBsAg content)", "setting": "Treatment 1: HBV02 3 mg/kg, day 0 post-dose", "result": 4.55, "unit": "log IU/ml"}, {"measurement": "HBsAg levels from mouse serum (average log HBsAg content)", "setting": "Treatment 1: HBV02 3 mg/kg, day 3 post-dose", "result": 3.99, "unit": "log IU/ml"}, {"measurement": "HBsAg levels from mouse serum (average log HBsAg content)", "setting": "Treatment 1: HBV02 3 mg/kg, day 7 post-dose", "result": 3.67, "unit": "log IU/ml"}, {"measurement": "HBsAg levels from mouse serum (average log HBsAg content)", "setting": "Treatment 1: HBV02 3 mg/kg, day 10 post-dose", "result": 3.59, "unit": "log IU/ml"}, {"measurement": "HBsAg levels from mouse serum (average log HBsAg content)", "setting": "Treatment 1: HBV02 3 mg/kg, day 14 post-dose", "result": 3.71, "unit": "log IU/ml"}, {"measurement": "HBsAg levels from mouse serum (average log HBsAg content)", "setting": "Treatment 1: HBV02 3 mg/kg, day 17 post-dose", "result": 3.69, "unit": "log IU/ml"}, {"measurement": "HBsAg levels from mouse serum (average log HBsAg content)", "setting": "Treatment 1: HBV02 3 mg/kg, day 21 post-dose", "result": 3.60, "unit": "log IU/ml"}, {"measurement": "HBsAg levels from mouse serum (average log HBsAg content)", "setting": "Treatment 1: HBV02 3 mg/kg, day 24 post-dose", "result": 3.57, "unit": "log IU/ml"}, {"measurement": "HBsAg levels from mouse serum (average log HBsAg content)", "setting": "Treatment 1: HBV02 3 mg/kg, day 28 post-dose", "result": 3.57, "unit": "log IU/ml"}, {"measurement": "HBsAg levels from mouse serum (average log HBsAg content)", "setting": "Treatment 1: HBV02 3 mg/kg, day 31 post-dose", "result": 3.81, "unit": "log IU/ml"}, {"measurement": "HBsAg levels from mouse serum (average log HBsAg content)", "setting": "Treatment 1: HBV02 3 mg/kg, day 35 post-dose", "result": 3.72, "unit": "log IU/ml"}, {"measurement": "HBsAg levels from mouse serum (average log HBsAg content)", "setting": "Treatment 1: HBV02 3 mg/kg, day 38 post-dose", "result": 3.72, "unit": "log IU/ml"}, {"measurement": "HBsAg levels from mouse serum (average log HBsAg content)", "setting": "Treatment 1: HBV02 3 mg/kg, day 42 post-dose", "result": 3.55, "unit": "log IU/ml"}]}, {"compound": "C=C1[C@H](CO)[C@@H](O)C[C@@H]1n1cnc2c(=O)[nH]c(N)nc21", "note": "[ETV, entecavir, reference compound]", "values": [{"measurement": "HBsAg levels from mouse serum (average log HBsAg content)", "setting": "Treatment 13: ETV 0.001 mg/kg, day 0 post-dose", "result": 4.54, "unit": "log IU/ml"}, {"measurement": "HBsAg levels from mouse serum (average log HBsAg content)", "setting": "Treatment 13: ETV 0.001 mg/kg, day 3 post-dose", "result": 4.54, "unit": "log IU/ml"}, {"measurement": "HBsAg levels from mouse serum (average log HBsAg content)", "setting": "Treatment 13: ETV 0.001 mg/kg, day 7 post-dose", "result": 4.39, "unit": "log IU/ml"}, {"measurement": "HBsAg levels from mouse serum (average log HBsAg content)", "setting": "Treatment 13: ETV 0.001 mg/kg, day 10 post-dose", "result": 4.29, "unit": "log IU/ml"}, {"measurement": "HBsAg levels from mouse serum (average log HBsAg content)", "setting": "Treatment 13: ETV 0.001 mg/kg, day 14 post-dose", "result": 4.28, "unit": "log IU/ml"}, {"measurement": "HBsAg levels from mouse serum (average log HBsAg content)", "setting": "Treatment 13: ETV 0.001 mg/kg, day 17 post-dose", "result": 4.24, "unit": "log IU/ml"}, {"measurement": "HBsAg levels from mouse serum (average log HBsAg content)", "setting": "Treatment 13: ETV 0.001 mg/kg, day 21 post-dose", "result": 4.13, "unit": "log IU/ml"}, {"measurement": "HBsAg levels from mouse serum (average log HBsAg content)", "setting": "Treatment 13: ETV 0.001 mg/kg, day 24 post-dose", "result": 4.21, "unit": "log IU/ml"}, {"measurement": "HBsAg levels from mouse serum (average log HBsAg content)", "setting": "Treatment 13: ETV 0.001 mg/kg, day 28 post-dose", "result": 3.98, "unit": "log IU/ml"}, {"measurement": "HBsAg levels from mouse serum (average log HBsAg content)", "setting": "Treatment 13: ETV 0.001 mg/kg, day 31 post-dose", "result": 4.02, "unit": "log IU/ml"}, {"measurement": "HBsAg levels from mouse serum (average log HBsAg content)", "setting": "Treatment 13: ETV 0.001 mg/kg, day 35 post-dose", "result": 3.88, "unit": "log IU/ml"}, {"measurement": "HBsAg levels from mouse serum (average log HBsAg content)", "setting": "Treatment 13: ETV 0.001 mg/kg, day 38 post-dose", "result": 3.92, "unit": "log IU/ml"}, {"measurement": "HBsAg levels from mouse serum (average log HBsAg content)", "setting": "Treatment 13: ETV 0.001 mg/kg, day 42 post-dose", "result": 3.84, "unit": "log IU/ml"}]}]}
